Key:
[1] = tested on: beagles; assay: Dog S.C. Hyperglycemic (150 mg/dl) Clamp Test; assay type: in vivo; details: S.C. 10 μg/kg; for GIR Change AUC / Insulin Change AUC: 0-120 min; for GIR Change AUC / Insulin Change AUC / Max Insulin Change: mean ± SEM; for Max Insulin Change: 120 minute test period; for Duration of Insulin Effect: time average insulin change consistently >0.5 ng/ml
Procedure: a) Hyperglycemic Clamp Studies
Experiments were conducted in overnight-fasted, conscious, adult (1-2 years of age) male and female beagles weighing 8-15 kg. At least ten days prior to the study, animals were anesthetized with isoflurane, and a cut-down was made in the left or right inguinal region. Silastic catheters were inserted into the femoral artery and the proximal caudal femoral vein and secured with 4-0 silk suture. The free ends of the catheters were passed subcutaneously to the back using a trocar needle. The catheters were then filled with a glycerol/heparin solution (3:1, v/v; final heparin concentration of 250 KIU/ml), and the free ends were knotted and placed in a subcutaneous pocket to allow complete closure of the skin. Keflex® was administered both pre-operatively (20 mg/kg, IV and 20 mg/kg, I.M.) and post-operatively (250 mg, p.o. once daily for seven days) to prevent infections. Torbugesic (1.5 mg/kg, I.M.) was administered post-operativelyto control pain.
Blood was drawn just prior to the study day to determine the health of the animal. Only animals with hematocrits above 38% and leukocyte counts below 16,000/mm^3 were used.
The afternoon before the experiment, the free ends of the catheters were exteriorized from the subcutaneous pocket through a small incision made under local anesthesia (2% lidocaine), and the dog was fitted with a tether system jacket and collar assembly.
The morning of the experiment, the contents of the catheters were aspirated, the catheters were flushed with saline, and extension lines (protected by a stainless steel tether) were attached to the catheters. On mornings of IV injection experiments, an over-the-needle, teflon catheter was inserted percutaneously into a cephalic vein in preparation for the administration of an IV bolus of test substance. The dog was placed in a metabolic cage, and the catheter extension lines and tether were attached to a swivel system to allow the dog to move freely about the cage. At this time (-60 minutes), an exogenous infusion of glucose (50% w/v in water) was begun through the chronic venous catheter. Glucose was infused in a descending stepwise fashion over the first six minutes of the study to rapidly raise the plasma glucose concentration to 150 mg/dl. Plasma glucose concentrations were determined every 2.5 to 7.5 minutes throughout the remainder of the study, and the glucose infusion rate was adjusted appropriately to maintain the plasma glucose concentration at 150 mg/dl.
Sixty minutes after the start of the glucose infusion (time 0), test substance was administered either intravenously (1.0, 2.9, 5.0 or 10.0 μg/kg; dose dissolved in 2 ml of saline containing 0.3% dog albumin, w/v) through the previously inserted teflon catheter or subcutaneously (10 μg/kg; 150 μM in phosphate buffered saline) in the dorsal aspect of the neck.
Arterial blood samples (3.5 ml) were taken at -30, -15, 0, 2.5, 5, 7.5, 10, 12.5, 15, 20, 30, 45, 60, 75, 90, 105 and 120 minutes during the IV studies and at -30, -15, 0, 3, 6, 9, 12, 15, 20, 30, 45, 60, 75, 90, 105 and 120 minutes during the SC studies. Samples were collected in vacuum blood collection tubes containing disodium EDTA and immediately placed on ice. To prevent proteolytic cleavage of GLP-1(7-37) in the plasma samples, 1.5 ml of the EDTA containing blood were transferred to a polypropylene tube containing 40 μl of aprotinin (10,000 KIU/ml) and mixed well. The samples were centrifuged, and the resulting plasma was transferred to polypropylene test tubes and stored on ice for the duration of the study.
At the conclusion of the experiment, the animal was anesthetized (isoflurane); the catheters were flushed with fresh saline and filled with the glycerol/heparin mixture; the free ends of the catheters were knotted and placed subcutaneously as described earlier; and antibiotic was administered (300 mg Keflex®, I.M.). […]

[2] = tested on: Sprague Dawley rats; assay: Rat I.V. Hyperglycemic (150 mg/dl) Clamp Test; assay type: in vivo; details: for Insulin Change AUC: 0-15 min; for GIR Change AUC: 0-30 min; for Max Insulin Change: 90 minute test period; for Duration of Insulin Effect: time average insulin change >0 ng/ml
Procedure: b) Hyperglycemic Clamp Studies
Experiments were conducted in chronically catheterized, normal, male Sprague Dawley rats weighing about 350 grams. At least a week prior to studies, surgery was performed on the rats under isoflurane anesthesia. Two catheters were implanted into the jugular vein for infusions of glucose and peptide and one catheter into the carotid artery for blood sampling. The catheters were exteriorized through the skin at the vertex of the head, filled with glycerol/heparin solution (3:1,v/v) and closed off with a one centimeter stainless steel plug. Animals were housed individually in wire mesh cages and allowed free access to standard rat chow diet and water.
Catheterized rats were fasted overnight prior to studies. On the morning of the experiment, rats were weighed and sampling tubings connected to their indwelling catheters. The tubings were enclosed in a light weight stainless steel spring for protection. During the study, rats were kept unrestrained in a plastic shoe box cage (12"×10"×12") with about one inch of bedding. After 15 minutes of acclimation, a basal sample was taken for measurement of insulin and glucose levels. At time -60 minutes, rats were given a bolus of 20% dextrose to raise plasma glucose to 150 mg/dl. The plasma glucose concentration was maintained at this level for the duration of the study by measuring the plasma glucose concentration every five minutes and adjusting the calibrated variable infusion pump accordingly. Blood samples were collected at -15 and 0 minutes for baseline measurements. Immediately after taking the zero minute sample, peptide (130-155 μM stock concentration, diluted in phosphate buffered saline) was injected via the jugular vein catheter and flushed with saline. Blood samples were taken for glucose and insulin determinations at 2, 4, 6, 8, 10, 12, 15, 20, 25, 30, 40, 50, 60, 70, 80, and 90 minutes. All blood samples were collected into syringes coated with sodium heparin, transferred into micro centrifuge tubes and placed on ice. Blood samples were then centrifuged in a micro centrifuge to separate the plasma component.
Plasma glucose levels were determined on the day of the study by the glucose oxidase method using the Beckman Glucose Analyzer 2, while the insulin concentrations were measured by a commercial kit (Diagnostic Products Corporation) with rat insulin standard.
Insulin change (the change in insulin from the baseline value) was calculated as the difference between the insulin concentration at time t and the average insulin concentration prior to injection of test substance. The area under the insulin change curve was calculated using the trapezoidal rule. Glucose infusion rate change (the percent change in the glucose infusion rate from the baseline value) was calculated as the difference between the glucose infusion rate value at time t and the average glucose infusion rate prior to injection of test substance, divided by the average glucose infusion rate prior to injection of test substance, times 100. The area under the glucose infusion rate change curve was calculated on the absolute glucose infusion rate change values (calculated as the difference between the glucose infusion rate value at time t and the glucose infusion rate prior to injection of test substance) using the trapezoidal rule. Values are listed as the mean ± the standard error of the mean (SEM).

GLP-1(7-37)OH
GIR Change AUC [1]: 696 ± 145 mg/kg | Insulin Change AUC [1]: 64 ± 33 ng·min/mL | Max Insulin Change [1]: 1.6 ± 0.8 ng/mL | Duration of Insulin Effect [1]: 27 min | Insulin Change AUC ([2]; I.V. 0.05 μg/kg): 3.0 ± 1.6 ng·min/mL | GIR Change AUC ([2]; I.V. 0.05 μg/kg): 48 ± 22 mg/kg | Max Insulin Change ([2]; I.V. 0.05 μg/kg): 1.6 ± 0.3 ng/mL | Duration of Insulin Effect ([2]; I.V. 0.05 μg/kg): 6 min | Insulin Change AUC ([2]; I.V. 0.1 μg/kg): 7.3 ± 2.8 ng·min/mL | GIR Change AUC ([2]; I.V. 0.1 μg/kg): 150 mg/kg | Max Insulin Change ([2]; I.V. 0.1 μg/kg): 3.6 ± 1.2 ng/mL | Duration of Insulin Effect ([2]; I.V. 0.1 μg/kg): 6 min | Insulin Change AUC ([2]; I.V. 0.2 μg/kg): 5.8 ± 0.9 ng·min/mL | GIR Change AUC ([2]; I.V. 0.2 μg/kg): 154 mg/kg | Max Insulin Change ([2]; I.V. 0.2 μg/kg): 2.8 ± 0.1 ng/mL | Duration of Insulin Effect ([2]; I.V. 0.2 μg/kg): 6 min | Insulin Change AUC ([2]; I.V. 0.6 μg/kg): 14.9 ng·min/mL | GIR Change AUC ([2]; I.V. 0.6 μg/kg): 151 mg/kg | Max Insulin Change ([2]; I.V. 0.6 μg/kg): 4.9 ± 1.3 ng/mL | Duration of Insulin Effect ([2]; I.V. 0.6 μg/kg): 6 min | Insulin Change AUC ([2]; I.V. 1.0 μg/kg): 16.7 ng·min/mL | GIR Change AUC ([2]; I.V. 1.0 μg/kg): 131 mg/kg | Max Insulin Change ([2]; I.V. 1.0 μg/kg): 7.7 ± 0.8 ng/mL | Duration of Insulin Effect ([2]; I.V. 1.0 μg/kg): 6 min | Insulin Change AUC ([2]; I.V. 2.0 μg/kg): 11.5 ng·min/mL | GIR Change AUC ([2]; I.V. 2.0 μg/kg): 152 mg/kg | Max Insulin Change ([2]; I.V. 2.0 μg/kg): 3.6 ± 0.9 ng/mL | Duration of Insulin Effect ([2]; I.V. 2.0 μg/kg): 6 min | Insulin Change AUC ([2]; I.V. 4.0 μg/kg): 10.4 ng·min/mL | GIR Change AUC ([2]; I.V. 4.0 μg/kg): 139 mg/kg | Max Insulin Change ([2]; I.V. 4.0 μg/kg): 2.0 ± 0.4 ng/mL | Duration of Insulin Effect ([2]; I.V. 4.0 μg/kg): 40 min

Lys^34 -N^ε -octanoyl-GLP-1(7-37)OH [Lys^34-N^ε-octanoyl-GLP-1(7-37)OH]
GIR Change AUC [1]: 532 ± 112 mg/kg | Insulin Change AUC [1]: 29 ± 8 ng·min/mL | Max Insulin Change [1]: 0.6 ± 0.3 ng/mL | Duration of Insulin Effect [1]: not active | Insulin Change AUC ([2]; I.V. 1.0 μg/kg): 13.2 ng·min/mL | GIR Change AUC ([2]; I.V. 1.0 μg/kg): 132 mg/kg | Max Insulin Change ([2]; I.V. 1.0 μg/kg): 2.4 ± 0.8 ng/mL | Duration of Insulin Effect ([2]; I.V. 1.0 μg/kg): 4 min

— US5512549A, “Glucagon-like insulinotropic peptide analogs, compositions, and methods of use” (Eli Lilly and Company, priority 1994, dated 1996)
